Entries after “also recorded” stand apart in the source; their conditions may differ. Read-outs that look alike come from different tables or passages of the source.
Assays:
physchem = assay type: physicochemical
Protocol: (§1) The mobile phases for every descriptor consisted of isocratic solutions of 20 mM ammonium acetate at pH 7.0 and acetonitrile at various percentages (see the specific descriptor). Small amounts of the 55 compounds were dissolved in buffer/acetonitrile mixtures (v/v) at concentrations ranging from 50 to 100 μg/mL. Subsequently, 10 μL of each solution (injection volume) was injected at an isocratic flow rate of 1 mL/min and analyzed at 30 °C (oven temperature). Chromatographic measurements were then analyzed in duplicate based on the specific chromatographic conditions of each descriptor.
BRlogD[39] required the injection of 55 samples into the X-Bridge column at 60% MeCN (predominant mobile phase constituent). The retention times and dead time (t0, baseline interference) were recorded, and the capacity factor log k’60 was calculated adapting eq 2. Lastly, BRlogD value was calculated from eq 3 [drawing 3] 3

[1] = log kW^IAM and Δ log kW^IAM (IAM chromatography); assay type: physicochemical; conditions: for log kW^IAM: IAM column, extrapolated to 100% buffer from 10 to 50% MeCN, pH 7.0; for Δ log kW^IAM: polarity, from log kW^IAM and BRlogD (eq 4, 5)
Protocol: as §1, with “descriptor. […] The retention times of the samples were recorded, and the capacity factor was calculated for each mobile phase condition adapting eq 2, where t0 is the retention time of citric acid.” for “descriptor.”

[2] = Chamelogk, chromatographic chameleonicity descriptor (PLRP-S RP-HPLC); assay type: physicochemical; conditions: Exp. minus Ext. log k' PLRP-S at 100% MeCN; linear fit at 50, 60, 70% MeCN; 20 mM ammonium acetate pH 7.0; 30 °C
[3] = oral activity; cited from earlier work
[4] = solubility range class; cited from earlier work
[5] = difference between maximum and minimum 3D-PSA among crystallized conformers; cited from earlier work
[6] = cited from earlier work
[7] = XBridge column, 60% MeCN, pH 7.0, read-out: BRlogD
[8] = XBridge Shield RP18 HPLC column, XBridge column, 60% MeCN, pH 7.0, read-out: BRlogD

Q: With `Cc1sc2c(c1C)C(c1ccc(Cl)cc1)=N[C@@H](CC(=O)Nc1ccc(OCCOCCOCCOCCNc3cccc4c3C(=O)N(C3CCC(=O)NC3=O)C4=O)cc1)c1nnc(C)n1-2` (stereo partly drawn) [ARV-825] as the compound, how does the chromatographic logD (physchem; [7]) read?
A: Its chromatographic logD is 3.49.

Q: What about the “log kW^IAM” value [1] of the same compound?
A: Its value is 3.49.

Q: And the “Δ log kW^IAM” value [1]?
A: Its value is 1.31.

Q: What about the Chamelogk [2] of the same compound?
A: The Chamelogk was 0.72.

Q: And the “Abs. Route” value [3]?
A: The value was “orally active”.

Q: And the LogS [4]?
A: The LogS was “Low range”.

Q: With `Cc1ncsc1-c1ccc(CNC(=O)[C@@H]2C[C@@H](O)CN2C(=O)[C@@H](NC(=O)COCCOCCOCCNC(=O)C[C@@H]2N=C(c3ccc(Cl)cc3)c3c(sc(C)c3C)-n3c(C)nnc32)C(C)(C)C)cc1` [MZ1] as the compound, how does the chromatographic logD (physchem; pH 7) read?
A: Its chromatographic logD is 1.77.

Q: And the “log kW^IAM” value [1]?
A: The value was 2.83.

Q: What about the “Δ log kW^IAM” value [1] of the same compound?
A: The value was 2.24.

Q: What about the Chamelogk [2] of the same compound?
A: Its Chamelogk is 1.15.

Q: What about the “Abs. Route” value [3] of the same compound?
A: Its value is “not orally bioavailable; also recorded: Non-oral”.

Q: What about the LogS [4] of the same compound?
A: Its LogS is “Int. range”.

Q: For `COC(=O)N[C@H](C(=O)N[C@@H](Cc1ccccc1)[C@@H](O)CN(Cc1ccc(-c2ccccn2)cc1)NC(=O)[C@@H](NC(=O)OC)C(C)(C)C)C(C)(C)C` [atazanavir], which chromatographic logD (physchem; [8]) is on record?
A: The chromatographic logD was 3.15.

Q: And the “X-Ray Δ 3D-PSA” value [5]?
A: The value was 34.

Q: And the “log kW^IAM” value [1]?
A: Its value is 2.74.

Q: What about the “Δ log kW^IAM” value [1] of the same compound?
A: Its value is 0.87.

Q: And the ChameLogD [6]?
A: The ChameLogD was 1.6.

Q: What about the Chamelogk [2] of the same compound?
A: The Chamelogk was 0.33.

Q: Which results are given for `Cc1ncsc1-c1ccc(CNC(=O)[C@@H]2C[C@H](O)CN2C(=O)[C@@H](NC(=O)COCCOCCOCCNC(=O)C[C@@H]2N=C(c3ccc(Cl)cc3)c3c(sc(C)c3C)-n3c(C)nnc32)C(C)(C)C)cc1` [cisMZ1]?
A: chromatographic logD (physchem; pH 7): 1.87; log kW^IAM [1]: 2.90; Δ log kW^IAM [1]: 2.20; Chamelogk [2]: 1.27; Abs. Route [3]: Non-oral; LogS [4]: Int. range

Q: For `Cc1c(O)cccc1C(=O)N[C@@H](CSc1ccccc1)[C@H](O)CN1C[C@H]2CCCC[C@H]2C[C@H]1C(=O)NC(C)(C)C` [nelfinavir], which chromatographic logD (physchem; [8]) is on record?
A: The chromatographic logD was 4.73.

Q: And the BRlogD (physchem; XBridge column, 60% MeCN, pH 7.0)?
A: The BRlogD was “below 5”.

Q: And the “log kW^IAM” value [1]?
A: The value was 2.69.

Q: And the “Δ log kW^IAM” value [1]?
A: The value was -0.63.

Q: And the ChameLogD [6]?
A: Its ChameLogD is 1.4.

Q: What about the Chamelogk [2] of the same compound?
A: The Chamelogk was 0.74.

Q: What does the source list for `CC(C)c1nc(CN(C)C(=O)N[C@H](C(=O)N[C@@H](Cc2ccccc2)C[C@H](O)[C@H](Cc2ccccc2)NC(=O)OCc2cncs2)C(C)C)cs1` [ritonavir]?
A: chromatographic logD (physchem; pH 7): 3.29; X-Ray Δ 3D-PSA [5]: 53; log kW^IAM [1]: 3.02; Δ log kW^IAM [1]: 1.02; ChameLogD [6]: 1.6; Chamelogk [2]: 0.67

Q: What does the source list for `CC(C)(C)NC(=O)[C@@H]1C[C@@H]2CCCC[C@@H]2CN1C[C@@H](O)[C@H](Cc1ccccc1)NC(=O)[C@H](CC(N)=O)NC(=O)c1ccc2ccccc2n1` [saquinavir]?
A: BRlogD (physchem; pH 7): 2.85; X-Ray Δ 3D-PSA [5]: 21; log kW^IAM [1]: 3.44; Δ log kW^IAM [1]: 1.85; Chamelogk [2]: 1.23

Q: What does the source list for `CO[C@H]1C[C@@H]2CC[C@@H](C)[C@@](O)(O2)C(=O)C(=O)N2CCCC[C@H]2C(=O)O[C@H]([C@H](C)C[C@@H]2CC[C@@H](O)[C@H](OC)C2)CC(=O)[C@H](C)/C=C(\C)[C@@H](O)[C@@H](OC)C(=O)[C@H](C)C[C@H](C)/C=C/C=C/C=C/1C` [sirolimus]?
A: chromatographic logD (physchem; pH 7): 4.97; log kW^IAM [1]: 3.96; Δ log kW^IAM [1]: 0.42; ChameLogD [6]: 1.4; Chamelogk [2]: 0.25

Q: What does the source list for `CCC[C@H](NC(=O)[C@@H]1[C@H]2CCC[C@H]2CN1C(=O)[C@@H](NC(=O)[C@@H](NC(=O)c1cnccn1)C1CCCCC1)C(C)(C)C)C(=O)C(=O)NC1CC1` [telaprevir]?
A: chromatographic logD (physchem; [7]): 3.6; X-Ray Δ 3D-PSA [5]: 32; log kW^IAM [1]: 3.02; Δ log kW^IAM [1]: 0.75; Chamelogk [2]: 0.31
